We go through 24 compounds from PMC2843756 (European journal of medicinal chemistry, 2010).

In general, MIC refers to the lowest concentration that inhibits growth of the organism. A high value points to a less susceptible organism.

Series [1] relates to Mycobacterium tuberculosis H37Rv. Put plainly: Microplate Alamar Blue Assay. The format is cell-based. The following applies: for anti-TB activity (in words): qualitative statement; for MIC: medium not specified.
For series [2], the system named is Mycobacteria tuberculosis H37Rv. Conditions: earlier work of the authors; cited from earlier work.
In series [3] the test system is panel of nontuberculosis mycobacteria and other bacteria (Gram positive and negative) as well as select strains of yeast. Put plainly: MIC against panel of nontuberculosis mycobacteria, other bacteria and yeast. The format is cell-based. Conditions: all strains of the panel; MIC's equal to negative control.
For series [4], the system named is Mycobacterium vaccae 10670 and Mycobacterium fortuitum B. In words: Agar diffusion assay. The format is cell-based. Background: Agar diffusion results depend on both activity and mobility in agar.
For series [5] the following is noted: mice, po once a day, 100 mg/kg five days, 2 days rest, 200 mg/kg five days.
Another series relates to VERO cells. In words: VERO cytotoxicity assay. Conditions: compared with non-methyl analog.
Series [6] is described as follows: Metabolic stability in rat liver microsomes. Conditions: in vitro metabolism. The format is in vitro ADME, Sprague-Dawley rat. Background: Liver microsomes are vesicles of endoplasmic reticulum, rich in cytochrome P450 enzymes.
Where [7] appears, read: Mycobacterium tuberculosis, H37RV.

`O=C(OCc1ccccc1)[C@@H]1COC(Cc2ccccc2)=N1` [Compound 43]: the “anti-TB activity (in words)” value in series [1] is listed as “diminished activity”.
Still for that read-out and setting: under `Cc1oc(-c2ccc(F)cc2[N+](=O)[O-])nc1C(=O)OCc1ccccc1` [Compound 111] stands “diminished anti-TB activity”; under `O=C(O)[C@@H]1COC(c2ccccc2O)=N1` [Compound 4], “lost all activity”.
Take `COc1ccc(CC2=N[C@H](C(=O)OCc3ccccc3)CO2)cc1` [Compound 44]: the “anti-TB activity (in words)” value in series [1] is “diminished activity”.
mycobactin T: the “effect on growth of Mycobacteria tuberculosis H37Rv” value (shortened to “effect on growth”) in series [2] is recorded as “promotes growth”.
Turning to `O=C(OCc1ccccc1)[C@@H]1COC(c2ccc(F)c([N+](=O)[O-])c2)=N1` [Compound 29, (S)-Benzyl 2-(4-fluoro-3-nitrophenyl)-4,5-dihydrooxazole-4-carboxylate], the “MIC against panel (in words)” value in series [3] was “inactive”. The zones of inhibition result in series [4] was “some zones of inhibition”. For the same compound, in series [5], the “tolerability (body weight, gross appearance and behavior)” value (“tolerability” below) is “well tolerated”.
For `Cc1oc(-c2ccccc2)nc1C(=O)OCc1ccccc1` [Compound 109], the “anti-TB activity (in words)” value in series [1] is “diminished anti-TB activity”. For the same compound, the “toxicity in the VERO assay (in words)” value in the series on VERO cells was “greatly increased toxicity”.
Turning to `O=C(OCc1ccccc1)c1coc(-c2cccc(Cl)c2)n1` [Compound 59], the MIC in series [1] (setting [7]) is below 1 µM.
Regarding `CCCCCCCCCCCCCCCC(=O)N(O)CCCC[C@H](NC(=O)[C@@H]1COC(c2ccccc2O)=N1)C(=O)OC[C@H](NC(=O)OC(C)(C)C)C(=O)N[C@H]1CCCCN(O)C1=O` [Compound 2], the “effect on growth” value in series [2] was “potent inhibition of TB growth”.
Take `COC(=O)[C@@H]1COC(c2cccc(Cl)c2)=N1` [Compound 19]: the “anti-TB activity (in words)” value in series [1] is on record as “considerably less active”.
As for `O=C(OCc1ccccc1)c1coc(-c2cccc(F)c2)n1` [Compound 89], the MIC in series [1] (setting [7]) is below 1 µM.
As for `COc1ccc(-c2nc(C(=O)OCc3ccccc3)co2)cc1` [Compound 60, Benzyl 2-(4-methoxyphenyl)oxazole-4-carboxylate], the “MIC against panel (in words)” value in series [3] was “inactive”. Besides, the zones of inhibition result in series [4] was “some zones of inhibition”. The “tolerability” value in series [5] is given as “well tolerated”.
For `O=C(OCc1ccccc1)c1coc(-c2ccccc2OCc2ccccc2)n1` [Compound 63, Benzyl 2-(2-(benzyloxy)phenyl)oxazole-4-carboxylate], the “MIC against panel (in words)” value in series [3] is “inactive”. In series [4], the zones of inhibition entry is recorded as “some zones of inhibition”. For the same compound, in series [5], the “tolerability” value is recorded as “well tolerated”.
`COC(=O)[C@@H]1COC(c2ccccc2OCc2ccccc2)=N1` [Compound 12]: the “anti-TB activity (in words)” value in series [1] was “considerably less active”.
In the case of `O=C(OCc1ccccc1)c1coc(-c2ccccc2Cl)n1` [Compound 68, Benzyl 2-(2-chlorophenyl)oxazole-4-carboxylate], the minimum inhibitory concentration (MIC) in series [1] (setting [7]) was below 1 µM. For the same compound, the “MIC against panel (in words)” value in series [3] was “inactive”. For the same compound, the zones of inhibition entry in series [4] is listed as “some zones of inhibition”. Further, the “tolerability” value in series [5] is listed as “well tolerated”.
Turning to `O=C(OCc1ccccc1)c1coc(-c2ccccc2)n1` [Compound 65, Benzyl 2-phenyloxazole-4-carboxylate], the MIC is below 1 µM in series [1] (setting [7]) and below 0.5 µM in series [1]. For the same compound, in series [3], the “MIC against panel (in words)” value was “inactive”. In series [4], the zones of inhibition entry was “some zones of inhibition”. The “tolerability” value in series [5] is given as “well tolerated”.
Regarding `COC(=O)[C@@H]1COC(c2ccc([N+](=O)[O-])cc2)=N1` [Compound 27], the “anti-TB activity (in words)” value in series [1] was “considerably less active”.
`O=C(OCc1ccccc1)c1coc(-c2ccc(F)c([N+](=O)[O-])c2)n1` [Compound 66, Benzyl 2-(4-fluoro-3-nitrophenyl)oxazole-4-carboxylate]: the MIC in series [1] (setting [7]) is below 1 µM. Moreover, the “MIC against panel (in words)” value in series [3] was “inactive”. Further, in series [4], the zones of inhibition result is on record as “some zones of inhibition”.
As for `O=C(OCc1ccccc1)c1coc(-c2ccc([N+](=O)[O-])cc2F)n1` [Compound 70], in series [1] (setting [7]), the MIC was below 1 µM.
For the compound `COc1ccc(-c2nc(C(=O)OCc3ccccc3)c(C)o2)cc1` [Compound 110], the “anti-TB activity (in words)” value in series [1] is “diminished anti-TB activity”.
With `CCCCCCCCCCCCCCCC(=O)N(O)CCCC[C@H](NC(=O)[C@@H]1COC(c2ccccc2O)=N1)C(=O)O[C@@H](C)CC(=O)N[C@H]1CCCCN(O)C1=O` [Mycobactin S], the “effect on growth” value in series [2] is on record as “inhibits the growth”.
As for `O=C(OCc1ccccc1)[C@@H]1COC(c2ccccc2OCc2ccccc2)=N1` [Compound 3, (S)-Benzyl 2-(2-(benzyloxy)phenyl)-4,5-dihydrooxazole-4-carboxylate], the “tolerability” value in series [5] is “well tolerated”.
On to `O=C(OCc1ccccc1)[C@@H]1COC(c2ccccc2)=N1` [Compound 15, (S)-Benzyl 4,5-dihydro-2-phenyloxazole-4-carboxylate], for which the major metabolite entry in series [6] was “the corresponding carboxylic acid”. Moreover, in series [3], the “MIC against panel (in words)” value was “inactive”. Also, in series [4], the zones of inhibition result is on record as “some zones of inhibition”. Also, the “tolerability” value in series [5] is “well tolerated”.
The compound `O=C(OCc1ccccc1)c1coc(-c2cncc(-c3ccccc3)c2)n1` [Compound 78] displayed an MIC in series [1] (setting [7]) below 1 µM.
